Measured values taken from patent US9314471B2, “Methods of preparing pharmaceutical solid state forms” (NeurMedix, Inc., priority 2008, dated 2016).

Columns and labels:
[1] = test system: LNCaP Cells; assay: Cell cycle analysis of LNCaP cells (DAPI, cytometer); format: cell-based; settings: 50 nM, four days, LNCaP cells in FBS or CSS
Procedure: (§1) LNCaP Cells (5×10^5) were seeded in phenol-red free RPMI with 5% hormone depleted charcoal stripped serum (CSS) in 6-well plates and allowed to adhere overnight, then cultured in fetal bovine serum (FBS) or CSS with or without 50 nM Compound 1 for four days. At the end of the incubation period, floating and adherent cells were harvested for cell cycle analysis. LNCaP cells were resuspended in a […] solution of 4,6-diamidino-2-phenylindole (DAPI) and 0.1% NP-40 in a Tris-buffered saline solution (pH 7.0) and analyzed using an Influx cytometer (Cytopiea, Seattle, Wash.). Analyses were performed with MultiCycle software (Phoenix Flow Systems, San Diego, Calif.). The Annexin V-FITC Apoptosis Detection Kit (Calbiochem, La Jolla, Calif.) was used according to the instructions of the manufacturer to detect apoptosis.

[2] = test system: established LNCaP tumors; assay: AED-stimulated LNCaP tumor model, effect on established LNCaP tumors; format: in vivo, SCID mice; settings: 4 mg/mouse/day once a day for three weeks
Procedure: (§2) Castrated SCID mice (six week-old) were implanted with a 5 mg AED, 60-day time-release pellet (Innovative Labs, Sarasota Fla.). After three days, all mice were injected subcutaneously in the right flank with 100 μL of 7.5×10^6 LNCaP tumor cells in phenol red-free RPMI mixed 1:1 with Matrigel. Tumor volumes were measured weekly and calculated as a2×b/2 with a being the width and b the length of the tumor in millimeters (reported as mm^3).
To test the effect of a Compound 1 on established LNCaP tumors, 36 castrated SCID mice received AED pellets and were inoculated with LNCaP tumors and monitored as described above. Once the tumors reach 15-25 mm^3, the mice were paired by tumor volume, and each mouse in a pair was assigned to the vehicle or 4 mg/mouse/day Compound 1 group. Animals were dosed once a day for three weeks.
(§3) Statistical analysis: Time to first measurable tumor volume was analyzed via Kaplan-Meier product limit estimates, with the exact log-rank test applied to test for the significance of the difference. Reduction of tumor volume is defined as a reduction in volume of at least 20% of the baseline volume, persisting to the end of the study. To detect the difference between active and control group, Fisher's exact test and exact 95% Cl for the difference was applied. A tumor of non-measurable volume is a tumor that, with the methodology at hand, measures 0 to the end of the study. The growth rate of a tumor was also analyzed via the mixed model.

[3] = test system: breast tumors induced by the administration of the carcinogen N-methyl-nitrosourea (NMU); assay: MNU stimulated breast tumor model; format: in vivo, Lewis rats
Text: The following study determined the effect of a formulation prepared with a polymorph of 17α-ethynyl-androst-5-ene-3α,17β-diol (Crystalline Form III of Compound 1) on the rate of growth and incidence of breast tumors induced by the administration of the carcinogen N-methyl-nitrosourea (NMU). Additionally, the activity of Compound 1 was compared to TAMOXIFEN™ ((Z)-2-[4-(1,2-diphenylbut-1-enyl)phenoxy]-N,N-dimethyl-ethanamine), ARIMIDEX™ (anastrozole) and TAXOTERE™ (docetaxel), which are drugs currently used to treat breast cancer.
Seven week old female Lewis rats (150 animals, 104 required for the study) were anesthetized with isoflurane for NMU administration. NMU was the administered ip. at a dose of 50 mg/Kg. Mammary tumors that developed were measured using a vernier caliper with two axes of the tumor measured in cm. Treatment commenced using a liquid formulation of Compound 1, prepared by dissolving crystalline […] in vehicle, when rats have a tumor volume of 0.5 cm×0.5 cm (at about 12-20 week of age). Treatment continued for 28 consecutive days, followed by 28 days of observation.
The experimental groups were Negative control group (no treatment), Vehicle control group (30% cyclodextrin-sulfobutylether in water), two treatment groups (8 mg/rat and 4 mg/rat), three standard therapy groups using an estrogen blocker (TAMOXIFEN™), an aromatase inhibitor (ARIMIDEX™), a cytotoxic agent (TAXOTERE™) and a combination treatment group receiving Compound 1 (8 mg/kg) and TAXOTERE™.

[4] = test system: LNCaP Cells; assay: Annexin V-FITC apoptosis detection in LNCaP cells; format: cell-based; settings: 50 nM, four days
Procedure: as §1

[5] = test system: LNCaP tumor cells; assay: AED-stimulated LNCaP tumor model, effect of dose on tumor incidence; format: in vivo, SCID mice; settings: for mean tumor volume in the animals that developed tumors: 28 days, vehicle 157 mm^3; for tumor incidence (compared to vehicle): daily for 28 days from 24 hours after tumor inoculation
Procedure: as §2
To test the effect of dose on tumor incidence, a total of 48 castrated male SCID mice were implanted with LNCaP tumor cells as described, and the mice were randomly divided into 4 groups of 12 animals each to provide vehicle control (30% cyclodextrin-sulfobutylether in water) group and treatment groups using 4 mg/mouse/day, 1 mg/mouse/day, and 0.4 mg/mouse/day). Treatment groups used a liquid formulation prepared by dissolving a solid state form of 17α-ethynyl-androst-5-ene-3α,17β-diol (Compound 1) in vehicle, which provided 20 mg Compound 1 per mL in 30% cyclodextrin-sulfobutylether in water. The liquid formulation so prepared was administered 24 hours after tumor inoculation as a 200 μL intraperitoneal (ip) injection. All animals were dosed daily for 28 consecutive days and tumor volumes were measured weekly.
as §3

[6] = Interconversion of crystalline forms in methanol-water (XRPD); format: physicochemical
Procedure: Form III Compound 1 (77.1 mg) was added to a glass vial, followed by MeOH (0.8 mL) and a stirring bar. The sample was placed in an oil bath at 65° C. and solids completely dissolved. Additional Form III was added so that excess solids remained and the mixture stirred for about 20 minutes. Additional MeOH (0.2 mL) was added and the mixture was hot filtered into a clean vial using a 0.2 μm nylon filter, and the filtrate was then placed in the oil bath at 65° C. Water (1 mL) was added and the mixture cooled to 20° C. over 2 hours. […] Form I was also produced from a slurry of Form III in 1:1 methanol water or 3:1 methanol:water that is seeded with samples having XRPD patterns of Form IV, Form V, Form VI, Form VII and Form VIII and stirred for 5 da at about 65° C. or 7 da at about 5° C.

[7] = Vapor stressing of melt-quenched amorphous Compound 1; format: physicochemical
Procedure: Amorphous compound 1, with varying degrees of crystallinity was also obtained form melt-quenching Form III according to the following procedure. Form III was lightly crushed with a spatula in a vial that was then placed in an oilbath set at 175° C. A nitrogen stream was run through the vial and the vial kept in the oilbath until the sample had melted. The vial was then removed and quickly placed in a bath containing dry ice with acetone. The sample was placed in a freezer under desiccant and analyzed by XRPD for crystallinity.
The propensity of amorphous material to convert to various crystalline forms was studied by vapor stressing melt-quenched Compound 1, prepared from Form III by the immediately preceding procedure.

[8] = Reanalysis of crystalline forms after prolonged standing; format: physicochemical
Text: Thus, crystalline Form V of 17α-ethynyl-androstane-3α,17β-diol is an anhydrate (i.e., has no solvent in its crystal structure).
Prior to dissolution of Form VI for NMR analysis, the Form VI sample was washed with CCl4 to remove non-specifically absorbed surface solvent. Proton NMR spectroscopy thus indicates Form VI is a dioxane solvate, which is supported by the DTA/TGA data, and is most likely a mono dioxane solvate based upon integration of the δ 3.64 ppm resonance and the weight loss in TGA. After prolonged standing at ambient temperature and pressure, the Form VI sample was reanalyzed by DTA/TGA and proton NMR. […] Thus, desolvation of Form VI may occur if storage precautions are inadequate and may be accompanied by a polymorphic transition to a more thermodynamically stable form such as Form III.
Thus, crystalline Form VII of 17α-ethynyl-androstane-3α,17β-diol is most likely an anhydrate (i.e., has no solvent in its crystal structure).

C#C[C@]1(O)CC[C@H]2[C@@H]3CC[C@H]4C[C@H](O)CC[C@]4(C)[C@H]3CC[C@@]21C [Compound 1, 17-Ethynyl-10R,13S-dimethyl-2,3,4,5S,6,7,8R,9S,10,11,12,13,14S,15,16,17-hexadecahydro-1H-cyclopenta[a]phenanthrene-3S,17S-diol]
number of cells in G1 [1]: rise in the number of cells in G1 | mice with a tumor that became non-measurable by Day 15 [2]: two | growth of established tumors (tumor volume) ([2]; tumors 15-25 mm^3 at start, p<0.001 vs vehicle): significantly blocked the growth of tumors | percent of mice that reduced their tumor volumes by 20% or more ([2]; vs vehicle, p<0.0294): significantly greater percent of mice | time to a new tumor as compared to vehicle ([3]; 28 consecutive days of treatment, 28 days of observation, p<0.001): longer time to a new tumor | time to new tumor compared with TAXOTERE ([3]; Compound 1 at 4 mg, p=0.042): outperformed TAXOTERE™ | tumor burden by volume compared with vehicle ([3]; Day 7 on: p<0.001): less tumor burden than for the vehicle treated group | median time to new tumor ([3]; from first day of dosing, vehicle 10 days): at least 56 days | delay to the occurrence of a second tumor vs vehicle ([3]; from median times to new tumor): at least a five fold delay | percentage of apoptotic LNCaP cells [4]: increase in the percentage of apoptotic LNCaP cells | mean tumor volume in the animals that developed tumors ([5]; 0.4 mg/mouse/day ip): 34 mm^3 | mean tumor volume in the animals that developed tumors ([5]; 1 mg/mouse/day ip): 4 mm^3 | tumor incidence (compared to vehicle) ([5]; 1 mg/mouse/day ip, p=0.006, n=11): significant reduction in tumor incidence | mean tumor volume in the animals that developed tumors ([5]; 4 mg/mouse/day ip): 0 mm^3 | tumor incidence (compared to vehicle) ([5]; 4 mg/mouse/day ip, p<0.001, n=12): significant reduction in tumor incidence | tumor volume ([5]; all three dose groups (4, 1, 0.4 mg/mouse/day ip, 28 days)): decreases in tumor volume apparent | time to a measurable tumor volume ([5]; three treated groups (4, 1, 0.4 mg/mouse/day ip), p<0.01): statistically significant delay

C#C[C@]1(O)CC[C@H]2[C@@H]3CC[C@H]4C[C@H](O)CC[C@]4(C)[C@H]3CC[C@@]21C [Form I, 17α-ethynyl-5α-androstane-3α,17β-diol]
relative stability of polymorphic forms ([6]; methanol-water, slurry seeded with Forms IV-VIII, 5 da at about 65° C. or 7 da at about 5° C.): most stable polymorphic form in methanol-water

C#C[C@]1(O)CC[C@H]2[C@@H]3CC[C@H]4C[C@H](O)CC[C@]4(C)[C@H]3CC[C@@]21C [Form III, 17α-ethynyl-5α-androstane-3α,17β-diol]
conversion of crystalline form (XRPD) ([6]; dissolved in MeOH at 65° C., water added, cooled to 20° C. over 2 hours, also slurry in 1:1 or 3:1 methanol:water): has converted to Form I | relative thermodynamic stability of polymorphic forms ([7]; provided not exposed to methanol-water): most thermodynamically stable polymorphic form

C#C[C@]1(O)CC[C@H]2[C@@H]3CC[C@H]4C[C@H](O)CC[C@]4(C)[C@H]3CC[C@@]21C [Form V, 17α-ethynyl-5α-androstane-3α,17β-diol]
polymorphic transition on prolonged standing (XRPD reanalysis) ([8]; prolonged standing): undergone a polymorphic transition to Form III

C#C[C@]1(O)CC[C@H]2[C@@H]3CC[C@H]4C[C@H](O)CC[C@]4(C)[C@H]3CC[C@@]21C [Form VI, 17α-ethynyl-5α-androstane-3α,17β-diol]
desolvation on standing (DTA/TGA reanalysis) ([8]; prolonged standing at ambient temperature and pressure): no TGA weight loss and no desolvation events in DTA

C#C[C@]1(O)CC[C@H]2[C@@H]3CC[C@H]4C[C@H](O)CC[C@]4(C)[C@H]3CC[C@@]21C [amorphous Compound 1, 17-ethynyl-5α-androstane-3α,17β-diol]
conversion of amorphous material to crystalline form ([7]; vapor stressing at high humidity): will convert back to Form III
